In a melting point compilation (Tetko et al.) one finds melting point data, which are given here for 107 compounds.

For the compound `CC(=O)c1ccc2c(c1)Cc1ccccc1-2`, the melting point is 130 °C.

On to `Cc1ccc(-c2onc(C(=O)c3ccc4ccccc4c3)c2S(=O)(=O)c2ccccc2)cc1`, for which the melting point came to 108 °C. Regarding `COc1ccccc1N1CCN(CC(C)N(C(=O)C2CCCCC2)c2ccccn2)CC1` (configuration not stated), the melting point was in the range of 90 to 91 °C. On to `COC1(C)CC(c2ccccc2)c2c(c3ccccc3oc2=O)O1` (configuration not stated), for which the melting point was 166 °C. The same measure for `CC(=NO)c1ccc(Cl)c(Cl)c1`: 108 to 111 °C; for `CC1(C)CC(=O)OC(=O)C1`: 122 to 126 °C. The compound `CC1CCC2(OC1)OC1CC3C4CC=C5CC(O)CCC5(C)C4CCC3(C)C1C2C` (configuration not stated) had a melting point of 206 °C. The same measure for `CC1C(c2ccccc2)=Cc2ccccc21` (configuration not stated): 58 °C; for `Fc1ccc2c3c([nH]c2c1)CNCC3`: 224 °C. The same measure for `Cn1cc(Br)c(CO)n1`: 94 to 95 °C; for `CC(C)C(=NO)C(C)C`: 34 °C; for `CC(C)(C)OC(=O)N1CCN(c2cc(C#N)ccn2)CC1`: 127 to 129 °C. For `Ic1ccc(I)nc1` the value was 155 °C; for `CC(=O)Nc1cccc(C=CC(=O)c2ccccc2)c1`, 104 °C. `COc1ccc(O)c(C(C)=O)c1` yielded a melting point of 49 °C. The same measure for `ClC(Cl)(Br)CBr`: -26 °C. Compound `Cc1nccn1C` came in with a melting point of 37 to 39 °C. The compound `Cc1ccc(/C=C2/C=C(CC(C)C)OC2=O)o1` registered a melting point of 88 °C. `O=Cc1ccc(O)c(F)c1` returned a melting point of 123 °C.

Compound `CSc1nn2c(C(F)(F)F)cc(C(F)(F)F)nc2c1C(N)=O` displayed a melting point of 250 °C.

In the case of `CCOC(=O)C(Br)=NNc1ccc([N+](=O)[O-])cc1`, the melting point lay in the range of 199 to 200 °C.

In turn, `Cc1cccc(C)c1NC(=O)c1ccc[nH]c1=O` displayed a melting point of 266 °C. The compound `CN(C)CCC=C1c2ccccc2CSc2ccccc21` came in with a melting point of 56 °C. The compound `CC(=O)Nc1ccccc1OC(F)(F)F` gave a melting point of 68 to 70 °C. The same measure for `C[C@]12CC[C@H]3[C@@H](CCC4=CC(=O)CC[C@@]43C)[C@@H]1CC[C@@H]2C(=O)O`: 254 °C. For `O=C(O)c1cscc1C(=O)O` the value was 227 to 231 °C; for `COC(=O)c1c2c(c(C)c3c1C(C)C3=O)C(=O)C2` (configuration not stated), 150 °C; for `C=CC1(C)OC(=O)N(c2cc(Cl)cc(Cl)c2)C1=O` (configuration not stated), 108 °C. For `Cc1c(C(N)=O)cc([N+](=O)[O-])cc1[N+](=O)[O-]` the value was 177 °C. On to `CCOC(=O)C1=C(C)NC(C)=C(C(=O)OCC)C1C`, for which the melting point lay within 132 to 139 °C. For `O=Cc1cc(O)cc(O)c1` the value was 160 °C; for `O=S(=O)(Nc1c(F)c(F)cc(F)c1F)C(F)(F)F`, 95 °C. On to `CC(=O)c1ccc(S(C)(=O)=O)cc1`, for which the melting point fell in the range of 129 to 131 °C. The same measure for `O=[N+]([O-])c1cc(C(F)(F)F)ccc1N1CCCC1`: 54 to 56 °C; for `CCCCCC(C)=O`: -35 °C. The same measure for `NC(=O)C1CC1`: 124 °C; for `Cc1c(C)c(C)c(C#N)c(C)c1C`: 159 °C. The same measure for `CCCCCCCCCCCCCCCC(=O)OC(=O)CCCCCCCCCCCCCCC`: 64 °C; for `CC12CCC(=O)C=C1C=CC1C2CCC2(C)C1CCC21CCC(=O)O1` (configuration not stated): 150 °C; for `c1ccc2sc(SSc3nc4ccccc4s3)nc2c1`: 180 °C. The compound `CN1CCOc2cc(S(=O)(=O)Cl)cnc21` gave a melting point of 130 to 132 °C. The same measure for `CCOC(=O)N1C(=O)c2ccccc2C1=O`: 91 °C; for `CCCCCF`: -120 °C. `O=C(O)c1cc(-c2cccs2)on1` showed a melting point of 168 °C.

On to `COC(=O)Nc1nc2ccccc2[nH]1`, for which the melting point came out at 305 °C. For `CC(C)N(C(=O)COc1nnc(C(F)(F)F)s1)c1ccc(F)cc1` the value was 78 °C; for `O=C(N[C@H](Cc1ccccc1F)C(=O)O)OCC1c2ccccc2-c2ccccc21`, 145 °C; for `CC(CC(=O)O)C1CCC2C3C=CC4CC(O)CCC4(C)C3CC(O)C12C` (configuration not stated), 181 °C.

`CC(=O)OC1CCC2(C)C(CC(=O)C3C2CC(OC(C)=O)C2(C)C(C(C)CCC(=O)O)CCC32)C1` (configuration not stated): the melting point was 105 to 107 °C. `O=[N+]([O-])c1ccc(Oc2c(Cl)cc(S(=O)(=O)Cl)cc2Cl)c(Cl)c1` returned a melting point of 159 to 160 °C. For `CCOC(=O)C1=C(C)OC(N)=C(C#N)C1c1ccc(N2CCOCC2)cc1` (configuration not stated) the value was 152 to 159 °C; for `COC(=O)c1cc(Br)c(C)c(Br)c1`, 88 °C; for `N=C(N)NCCC[C@H](NC(=O)OCc1ccccc1)C(=O)O`, 173 to 175 °C. Take `O=C(N[C@@H](Cc1ccccc1)C(=O)Oc1c(F)c(F)c(F)c(F)c1F)OCC1c2ccccc2-c2ccccc21`: the melting point is 151 to 152 °C.

Compound `CC(=O)OC1CCC2(C)C3CCC4=C(CCC4(C)C(C)OC(C)=O)C3CCC2(C)C1` (configuration not stated) returned a melting point of 117 to 119 °C. `CCOC(=O)Cn1cnc(Cl)c1Cl` registered a melting point of 65 to 67 °C. In the case of `CC(O)C(C)C(N)C(=O)O` (configuration not stated), the melting point came to 200 °C. The same measure for `CCCOC(=O)C1=C(C)NC(=S)NC1c1ccccc1` (configuration not stated): 169 °C.

Take `O=CC=Cc1ccc([N+](=O)[O-])cc1`: the melting point came out at 142 °C.

`O=C(O)C(=Cc1ccccc1)C(=Cc1ccccc1)C(=O)O` displayed a melting point of 223 °C. The same measure for `O=C(O)C12CC3CC(CC(O)(C3)C1)C2`: 205 °C; for `O=C(O)c1ccc(SSc2ccc(C(=O)O)cc2[N+](=O)[O-])c([N+](=O)[O-])c1`: 308 °C; for `C[C@H]1NC(=O)O[C@H]1c1ccccc1`: 118 to 121 °C. `O=Cc1csnn1` showed a melting point of 85 to 87 °C. Compound `O=Cc1ccc2cccc(O)c2n1` registered a melting point of 96 to 100 °C. The same measure for `Cn1cc(Br)c(C=O)n1`: 71 to 72 °C; for `c1ccc2c(c1)OCCOCCOCCO2`: 48 to 50 °C; for `Cn1c2cc(N3CCCC3)cc(-c3ccccc3)c2c(=O)n1-c1ccccc1`: 159 °C.

Regarding `COc1ccc(C=NN=C2NC(=O)C(=Cc3ccccc3)S2)cc1`, the melting point lay within 255 to 257 °C. `Cc1cc2occ(C#N)c(=O)c2cc1C` yielded a melting point of 206 to 210 °C. For `CC(=O)OC1C(C2COC(C)(C)O2)OC2OC(C)(C)OC21` (configuration not stated) the value was 60 to 62 °C. The same measure for `N#CCN1CCCCC1`: 25 °C. In turn, `Cc1c(NN=C2C(=O)NN=C2c2c(O)c3ccccc3n(C)c2=O)c(=O)n(-c2ccccc2)n1C` returned a melting point of 200 °C.

In the case of `Nc1ncc(Cl)cc1Br`, the melting point turned out to be 84 °C. For `CC(C)c1cccc(O)c1` the value was 26 °C. Consider `C=O`, for which the melting point is -92 °C. For `CC(C)(C)[C@@H]1NC(=O)CNC1=O` the value was 300 °C; for `Cc1nc(N)ccc1C#N`, 155 to 156 °C. With `CC(=C(CCOC(=O)c1ccccc1)SSC(CCOC(=O)c1ccccc1)=C(C)N(C=O)Cc1cnc(C)nc1N)N(C=O)Cc1cnc(C)nc1N`, the melting point amounted to 146 °C. On to `COC(=O)c1cc2ccccc2c(O)c1C(=O)OC`, for which the melting point came to 105 °C. Consider `O=C(Nc1ccc(F)cc1)c1cccc(Oc2cccc(C(F)(F)F)c2)n1`, for which the melting point was determined as 107 °C. Compound `COc1cc(C2c3cc4c(cc3C(O)C3COC(=O)C23)OCO4)cc(OC)c1OC` (configuration not stated) showed a melting point of 228 °C. As for `Nc1c(CN2CCCC2)c(=O)oc2ccccc12`, the melting point worked out at 197 °C. The same measure for `O=S(=O)(Cl)c1cc(Br)cc2c1OCC2`: 121 to 122 °C; for `COC(=O)NC1C(O)OC(CO)C(O)C1O` (configuration not stated): 196 °C; for `COC(=O)CC(O)(CC(=O)OC)C(=O)OC`: 79.3 °C. `OCc1scc2c1OCCO2`: the melting point is 68 to 69 °C.

Compound `O=C(O)C=Cc1ccccc1F` had a melting point of 179 °C.

As to `Cc1ccc(NC(=O)C(F)(F)C(F)(F)C(F)(F)C(F)(F)C(F)(F)C(F)(F)C(F)(F)C(F)(F)F)c(C)c1`, the melting point stood at 83 °C. As to `O=C(O)c1c(F)cccc1I`, the melting point lay in the range of 121 to 126 °C.

Regarding `FC(F)(F)c1cccc(C(c2ccccc2)(c2ccccc2)n2cncn2)c1`, the melting point stood at 132 °C. Turning to `Nc1nncs1`, the melting point stood at 191 °C. The compound `Cc1cc(C)n(N=Cc2ccc([N+](=O)[O-])cc2)c(=O)c1C#N` gave a melting point of 260 to 261 °C.

`COc1cccc(F)c1C=O` returned a melting point of 59 °C. `CC(C)(C)OC(=O)N[C@@H](CC(=O)O)c1ccc(Br)cc1` gave a melting point of 144 °C. `CC(C)=CCCC(C)=CC=CC(C)=CC=CC(C)=CC=CC=C(C)C=CC=C(C)C=CC1C(C)=CCCC1(C)C` (configuration not stated) returned a melting point of 140 °C. The same measure for `O=[N+]([O-])c1ccc2nc(C(Cl)(Cl)Cl)[nH]c2c1`: 210 to 212 °C.

With `c1ccc(N2CSc3nnc(-c4cccnc4)n3C2)nc1`, the melting point lay in the range of 278 to 280 °C. The same measure for `Cc1ccc(Cc2ccc(CP(=O)(c3ccccc3)c3ccccc3)o2)o1`: 220 to 221 °C. The same measure for `CCCC/C=C/CCCC`: -73 °C. For `O=c1[nH]c(=O)n(C2OC(CO)C(O)C2O)cc1F` (configuration not stated) the value was 180 to 183 °C.

As to `O=C(O)Cc1ccc(F)c(Cl)c1`, the melting point stood at 57 °C.

The compound `O=C(O)CCc1ccc2c(c1)NC(=O)CC2` came in with a melting point of 240 °C. The same measure for `Nc1ncccc1[N+](=O)[O-]`: 166 °C.

Take `CC(=NNC(=O)c1ccncc1)c1ccco1`: the melting point was found to be 199 °C. For `COC(=O)c1ccccc1NC(=S)NNC(=O)C(=O)c1c[nH]c2ccccc12` the value was 283 °C; for `CC1CC1C` (configuration not stated), -141 °C.
